The structures appear in SMILES notation. pIC50: −log10 of the molar value.

Assay [1] has as its target T1, Human idoleamine 2,3-dioxygenase (IDO) (Homo sapiens, UniProt P14902).
T1 construct: His tag (N); made in house; host or cells: E. coli
Put plainly: Human indoleamine 2,3-dioxygenase (IDO) enzyme assay. The settings on record: 95 nM IDO, 2 mM D-Trp, pH 6.5, room temperature, absorbance at 321 nm. Type of assay: biochemical. Here is the method:
Human idoleamine 2,3-dioxygenase (IDO) with an N-terminal His tag was expressed in E. coli and purified to homogeneity. IDO catalyzes the oxidative cleavage of the pyrrole ring of the indole nucleus of tryptophan to yield N′-formylkynurenine. The assays were performed at room temperature as described in the literature using 95 nM IDO and 2 mM D-Trp in the presence of 20 mM ascorbate, 5 μM methylene blue and 0.2 mg/mL catalase in 50 mM potassium phosphate buffer (pH 6.5). The initial reaction rates were recorded by continuously following the absorbance increase at 321 nm due to the formation of N′-formylkynurenine. […] The symbol “+” indicates IC50<1000 […].

For assay [2], the system named is LLC tumors. Conditions: LLC tumors in C57Bl/6 mice, versus placebo (Friberg et al); cited from earlier work.
For assay [3], the system named is P815 tumor. The settings on record: pre-immunized immune-competent mice, P815 (Uyttenhove et al); cited from earlier work.

T1 sequence (P14902 whole entry): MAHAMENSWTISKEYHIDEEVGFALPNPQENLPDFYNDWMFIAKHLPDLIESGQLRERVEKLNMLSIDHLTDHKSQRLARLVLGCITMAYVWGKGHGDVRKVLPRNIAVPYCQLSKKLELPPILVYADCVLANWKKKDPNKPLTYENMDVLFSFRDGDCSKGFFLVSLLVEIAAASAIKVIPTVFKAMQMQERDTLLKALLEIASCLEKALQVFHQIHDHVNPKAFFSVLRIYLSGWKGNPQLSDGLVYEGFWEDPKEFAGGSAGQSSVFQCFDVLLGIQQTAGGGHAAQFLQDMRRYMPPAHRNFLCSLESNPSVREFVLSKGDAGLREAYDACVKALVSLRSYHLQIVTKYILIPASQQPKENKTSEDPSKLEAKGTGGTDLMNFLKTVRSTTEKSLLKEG

The term pIC50 denotes the IC50 on a negative log10 scale, so that one unit is a factor of ten. As for `ON=C(Nc1ccc(F)c(Cl)c1)c1cc(OCCCN2CCCC2)no1` [Example 2, N-(3-Chloro-4-fluorophenyl)-N′-hydroxy-3-(3-pyrrolidin-1-ylpropoxy)isoxazole-5-carboximidamide], in assay [1], the pIC50 is below 5.00. `ON=C(Nc1ccc(F)c(Cl)c1)c1cc(N2CCOCC2)no1` [Example 3, N-(3-Chloro-4-fluorophenyl)-N′-hydroxy-3-morpholin-ylisoxazole-5-carboximidamide]: in assay [1], the pIC50 was below 5.00. Still for that read-out and setting: to `CC(=O)Nc1cc(C(=NO)NCc2cc(Cl)ccc2C)on1` [Example 22, N-[5-[(5-chloro-2-methylbenzyl)amino](hydroxyimino)methyl]isoxazol-3-ylacetamide] belongs below 5.00.

With `Cn1cc(C[C@H](N)C(=O)O)c2ccccc21` [Example 1-MT, 1-methyl-tryptophan], in assay [2], the formation of tumors result is “markedly delayed”. Further, the growth of tumors result in assay [3] was “inhibited”.
